Drawing on patent EP2951180B1, “2,6,7,8 SUBSTITUTED PURINES AS HDM2 INHIBITORS” (Merck Sharp & Dohme Corp., priority 2013, dated 2014), this text covers IC50 for 26 compounds.

Like-named read-outs stand apart in the source and are kept apart here.

The assay addresses T1, HDM2 (Homo sapiens, UniProt Q00987).
T1 construct: Thioredoxin (N); made in house; host or cells: E. coli strain BL21(DE3)Rosetta
In words: HDM2 FRET assay (inhibition of binding of FITC labeled p53-pocket peptide to HDM2). The conditions noted are these: read-out: FRET IC50. Summed up: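 Final: 0.5 nM His-HDM2, 3 nM FITC peptide, 0.25 nM Tb anti-His Ab; PBS, 0.01% BSA, 0.01% Tween-20; 0.1% DMSO.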

The mark [1] stands for this setting: 0.5 nM HDM2 (residues 17 to 125), 3nM peptide, two hour incubation at room temperature.

T1 sequence (Q00987 17-125): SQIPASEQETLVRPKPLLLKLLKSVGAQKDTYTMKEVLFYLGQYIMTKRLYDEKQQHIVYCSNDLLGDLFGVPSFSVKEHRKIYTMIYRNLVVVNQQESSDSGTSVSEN

As usually defined, the IC50 is the point on the concentration scale where inhibition reaches its midpoint. Regarding `C[C@@H]1COC[C@@H](C)N1c1nc2nc(-c3n[nH]c(=O)o3)nc(-c3cncc(Cl)c3)c2n1C[C@H]1CC[C@H](C)CC1` [Example 16.105, 5-{6-(5-chloropyridin-3-yl)-8-[(3R,5R)-3,5-dimethylmorpholin-4-yl]-7-[(trans-4-methylcyclohexyl)methyl]-7H-purin-2-yl}-1,3,4-oxadiazol-2(3H)-one], under setting [1], the IC50 was determined as 11 nM.
Same read-out and setting: the value for `CC(=O)c1nc(N[C@H](C)C2CCC2)c2c(n1)nc(N1CCOC[C@H]1c1ccccc1)n2C[C@H]1CC[C@H](C)CC1` [Example 12.21, 1-(6-{[(1R)-1-cyclobutylethyl]amino}-7-[(trans-4-methylcyclohexyl)methyl]-8-[(3R)-3-phenylmorpholin-4-yl]-7H-purin-2-yl)ethanone] was 53.3 nM.
As for `CC([C@H]1CC[C@H](C)CC1)n1c(N2CCC[C@H]2C(F)(F)F)nc2nc(-c3noc(=O)[nH]3)nc(-c3cncc(Cl)c3)c21` (stereo partly drawn) [Example 18.49, 3-{6-(5-chloropyridin-3-yl)-7-[1-(trans-4-methylcyclohexyl)ethyl]-8-[(2S)-2-(trifluoromethyl)pyrrolidin-1-yl]-7H-purin-2-yl}-1,2,4-oxadiazol-5(4H)-one], the IC50 (Table 18) was 0.67 nM.
With `CCNC(=O)c1nc(N[C@H](C)C2CCC2)c2c(n1)nc(N1CCOC[C@H]1c1ccccc1)n2C[C@H]1CC[C@H](C)CC1` [Example 12.17, 6-{[(1R)-1-cyclobutylethyl]amino}-N-ethyl-7-[(trans-4-methylcyclohexyl)methyl]-8-[(3R)-3-phenylmorpholin-4-yl]-7H-purine-2-carboxamide], the IC50 under setting [1] was determined as 1.63 nM.
As for `C[C@H]1CC[C@H](Cn2c(C(=O)c3ccccc3)nc3nc(-c4noc(=O)[nH]4)nc(-c4cccc(Cl)c4)c32)CC1` [Example 23.43, 3-[6-(3-chlorophenyl)-7-[(trans-4-methylcyclohexyl)methyl]-8-(phenylcarbonyl)-7H-purin-2-yl]-1,2,4-oxadiazol-5(4H)-one], where the note is “Table 23”, the IC50 stood at 72.7 nM.
On to `Cc1cccc(-c2nc3nc(C(=O)O)nc(NC(C)(C)C4CC4)c3n2Cc2ccc(Cl)cc2)c1` [Example 6.6, 7-(4-chlorobenzyl)-6-[(1-cyclopropyl-1-methylethyl)amino]-8-(3-methylphenyl)-7H-purine-2-carboxylic acid], for which the IC50 (Table 6) turned out to be 1650 nM.
In the case of `C[C@H]1CC[C@H](Cn2c(C3(c4ccccn4)CC3)nc3nc(-c4nc(=O)o[nH]4)nc(-c4cccc(Cl)c4)c32)CC1` [Example 23.102, 3-[6-(3-chlorophenyl)-7-[(trans-4-methylcyclohexyl)methyl] -8-(1-pyridin-2-ylcyclopropyl)-7H-purin-2-yl]-1,2,4-oxadiazol-5(2H)-one], the IC50 (Table 23) stood at 17 nM.
`CC([C@H]1CC[C@H](C)CC1)n1c(N2CCOC[C@H]2C)nc2nc(-c3noc(=O)[nH]3)nc(N[C@H](C)C3CCC3)c21` (single isomer, unassigned) [Example 18.12]: the IC50 (Table 18) was determined as 2.82 nM.
In the case of `Cc1cccc(-c2nc3nc(C(=O)O)nc(NC(C)C4CC4C)c3n2Cc2ccc(C(F)(F)F)cc2)c1` (centres unmarked) [Example 6.38, 6-{[1-(2-methylcyclopropyl)ethyl]amino}-8-(3-methylphenyl)-7-[4-(trifluoromethyl)benzyl]-7H-purine-2-carboxylic acid], the IC50 (Table 6) is 530 nM.
For the compound `CC1=CCC(Cn2c(-c3cc(C(C)C)ccn3)nc3nc(C(=O)O)nc(N[C@H](C)C4CCC4)c32)CC1` (stereo partly drawn) [Example 18.5, 6-(((R)-1-cyclobutylethyl)amino)-8-(4-isopropylpyridin-2-yl)-7-((4-methylcyclohex-3-en-1-yl)methyl)-7H-purine-2-carboxylic acid], where the note is “Table 18”, the IC50 worked out at 6.48 nM.
As for `C[C@@H](Nc1nc(N2CCC(C(=O)O)C2)nc2nc(N3CCOC[C@H]3c3ccccc3)n(C[C@H]3CC[C@H](C)CC3)c12)C1CCC1` (stereo partly drawn) [Example 13.9, 1-(6-{[(1R)-1-cyclobutylethyl]amino}-7-[(trans-4-methylcyclohexyl)methyl]-8-[(3R)-3-phenylmorpholin-4-yl]-7H-purin-2-yl)pyrrolidine-3-carboxylic acid], the IC50 under setting [1] came to 199 nM.
As for `C[C@@H]1COC[C@@H](C)N1c1nc2nc(-c3noc(=O)[nH]3)nc(N[C@H](C)C3CCC3)c2n1C[C@H]1CC[C@H](C)CC1` [Example 11.129, 3-(6-{[(1R)-1-cyclobutylethyl]amino}-8-[(3R,5R)-3,5-dimethylmorpholin-4-yl]-7-[(trans-4-methylcyclohexyl)methyl]-7H-purin-2-yl)-1,2,4-oxadiazol-5(4H)-one], the IC50 (Table 11) was 0.788 nM.
Regarding `C[C@@H](Nc1nc(-c2noc(=O)[nH]2)nc2nc(C(C)(O)c3cscn3)n(C[C@H]3CC[C@H](C)CC3)c12)C1CCC1` (stereo partly drawn) [Example 22.52, 3-(6-{[(1R)-1-cyclobutylethyl]amino}-8-[1-hydroxy-1-(1,3-thiazol-4-yl)ethyl]-7-[(trans-4-methylcyclohexyl)methyl] -7H-purin-2-yl)-1,2,4-oxadiazol-5(4H)-one], for the setting “Table 22”, the IC50 is 1.85 nM.
Consider `CCCN(c1nc2nc(C(=O)O)nc(N[C@H](C)C3CCC3)c2n1Cc1ccc(C(F)(F)F)cc1)[C@@H](C)c1ccccc1` [Example 9.49, 6-{[(1R)-1-cyclobutylethyl]amino}-8-{[(1S)-1-phenylethyl] (propyl)amino}-7-[4-(trifluoromethyl)benzyl]-7H-purine-2-carboxylic acid], for which, under “Table 9”, the IC50 is 22.8 nM.
In the case of `C[C@@H](Nc1nc(-c2noc(=O)[nH]2)nc2nc(C(C)(O)c3ccccc3)n(C[C@H]3CC[C@H](C)CC3)c12)C1CCC1` (single isomer, unassigned) [Example 22.24], the IC50 (Table 22) came to 33.8 nM.
`Cc1cccc(-c2nc(-c3noc(=O)[nH]3)nc3nc(N4CCOC[C@@H]4C)n(C[C@H]4CC[C@H](C)CC4)c23)c1` [Example 16.34, 3-{7-[(trans-4-methylcyclohexyl)methyl]-8-[(3S)-3-methylmorpholin-4-yl]-6-(3-methylphenyl)-7H-purin-2-yl}-1,2,4-oxadiazol-5(4H)-one]: the IC50 under setting [1] is 503 nM.
Take `COC(C)(C)C1CCCN1c1nc2nc(-c3noc(=O)[nH]3)nc(N[C@H](C)C3CCC3)c2n1C[C@H]1CC[C@H](C)CC1` (stereo partly drawn) [Example 11.107, 3-(6-{[(1R)-1-cyclobutylethyl]amino}-8-[2-(1-methoxy-1-methylethyl)pyrrolidin-1-yl]-7-[(trans-4-methylcyclohexyl)methyl]-7H-purin-2-yl)-1,2,4-oxadiazol-5(2H)-one]: for the setting “Table 11”, the IC50 was 0.507 nM.
As for `C[C@@H](Nc1nc(C(=O)O)nc2nc(N3CCCCC3C3CCCCC3)n(Cc3ccc(C(F)(F)F)cc3)c12)C1CCC1` (stereo partly drawn) [Example 9.122, 6-{[(1R)-1-cyclobutylethyl]amino}-8-(2-cyclohexylpiperidin-1-yl)-7-[4-(trifluoromethyl)benzyl]-7H-purine-2-carboxylic acid], the IC50 (Table 9) came to 4.59 nM.
With `C[C@H]1CC[C@H](Cn2c(N3CCOC[C@H]3c3ccccc3)nc3nc(-c4noc(=O)[nH]4)nc(N4CCCCC4C4CCC4)c32)CC1` (stereo partly drawn) [Example 11.81, 3-{6-(2-cyclobutylpiperidin-1-yl)-7-[(trans-4-methylcyclohexyl)methyl]-8-[(3R)-3-phenylmorpholin-4-yl]-7H -purin-2-yl}-1,2,4-oxadiazol-5(4H)-one], the IC50 (Table 11) stood at 483 nM.
With `C[C@@H](Nc1nc(C(=O)O)nc2nc(N3CCCC[C@@H]3c3ccccc3)n(C[C@H]3CC[C@H](C)CC3)c12)C1CCC1` [Example 11.12, 6-{[(1R)-1-cyclobutylethyl]amino}-7-[(trans-4-methylcyclohexyl)methyl]-8-[(2R)-2-phenylpiperidin-1-yl]-7H-purine-2-carboxylic acid], the IC50 (Table 11) is 2.82 nM.
On to `CC(O)c1nc2nc(C(=O)O)nc(N[C@H](C)C3CCC3)c2n1Cc1ccc(C(F)(F)F)cc1` (stereo partly drawn) [Example 10.7, 6-(((R)-1-Cyclobutylethyl)amino)-8-(1-hydroxyethyl)-7-(4-(trifluoromethyl)benzyl)-7H-purine-2-carboxylic acid], for which the IC50 (Table 10) came out at 140 nM.
For the compound `C[C@H]1CC[C@H](Cn2c(C(=O)C3CCCCC3)nc3nc(-c4noc(=O)[nH]4)nc(-c4cccc(Cl)c4)c32)CC1` [Example 23.6, 3-{6-(3-chlorophenyl)-8-(cyclohexylcarbonyl)-7-[(trans-4-methylcyclohexyl)methyl] -7H-purin-2-yl}-1,2,4-oxadiazol-5(4H)-one], the IC50 (Table 23) is 13.9 nM.
As for `C[C@@H](Nc1nc(-c2noc(=O)[nH]2)nc2nc(N3CCCC3c3ccccc3)n(C[C@H]3CC[C@H](C)CC3)c12)C1CCC1` (stereo partly drawn) [Example 11.130, 3-[6-{[(1R)-1-cyclobutylethyl]amino}-7-[(trans-4-methylcyclohexyl)methyl]-8-(2-phenylpyrrolidin-1-yl)-7H-purin-2-yl]-1,2,4-oxadiazol-5(4H)-one], the IC50 (Table 11) came to 2.05 nM.
For the compound `C[C@@H](Nc1nc(-c2noc(=O)[nH]2)nc2nc(N3CCCCC3Cc3ccccc3)n(Cc3ccc(C(F)(F)F)cc3)c12)C1CCC1` (stereo partly drawn) [Example 9.109, 3-{8-(2-benzylpiperidin-1-yl)-6-{[(1R)-1-cyclobutylethyl]amino}-7-[4-(trifluoromethyl)benzyl]-7H-purin-2-yl}-1,2,4-oxadiazol-5(4H)-one], for the setting “Table 9”, the IC50 was 59.9 nM.
On to `C[C@@H](Nc1nc(-c2noc(=O)[nH]2)nc2nc(N3CCCCC3CF)n(C[C@H]3CC[C@H](C)CC3)c12)C1CCC1` (stereo partly drawn) [Example 11.40, 3-(6-{[(1R)-1-cyclobutylethyl]amino}-8-[2-(fluoromethyl)piperidin-1-yl]-7-[(trans-4-methylcyclohexyl)methyl]-7H-purin-2-yl)-1,2,4-oxadiazol-5(2H)-one], for which the IC50 (Table 11) turned out to be 8.52 nM.
Take `C[C@@H](Nc1nc(-c2noc(=O)[nH]2)nc2nc(N3CCOC4CCCC43)n(C[C@H]3CC[C@H](C)CC3)c12)C1CCC1` (single isomer, unassigned) [Example 11.149]: the IC50 (Table 11) was found to be 3.58 nM.
